Results reported in patent US11801226B2, “Pharmaceutical formulation of odevixibat” (Albireo AB, priority 2018, dated 2023).
Converted amounts (≈) assume the structure as drawn.

Experiments:
Assay type in all cases: physicochemical
[1] = Water content / hygroscopicity of crystal modification 1 versus relative humidity
Excerpt: Crystal modification 1 of odevixibat cannot only be obtained from a mixture of water and ethanol, as described above, but also from a slurry of odevixibat in a mixture of water and an organic solvent selected from the group consisting of methanol, 2-propanol, acetone, acetonitrile, 1,4-dioxane, DMF and DMSO. Upon drying of the different mixed solvates obtained under these conditions (crystal modification 2), the same crystalline hydrate of odevixibat is obtained, namely crystal modification 1. Crystal modification 1 contains void volumes that are capable of containing up to about 2 moles of water associated with the crystal per mole of odevixibat, depending on the relative humidity. This form is therefore formally a channel hydrate. At about 30% relative humidity, however, crystal modification 1 contains a substantially stoichiometric amount of about 1.5 moles of water per mole of organic compound and is thus a sesquihydrate. The substantially stoichiometric amount of water is considered advantageous, as the water content of the crystals remains substantially constant even with humidity changes within the normal relative humidity range of about 30% to about 70% RH.
Whereas crystal modification 1 is a sesquihydrate containing about 3.5% (w/w) water at about 30% relative humidity (based on the total crystal weight), it has been observed that the crystal can take up an additional 1.5% (w/w) water when the humidity is increased up to 95% RH. The sorption and desorption of this additional water is fully reversible. The additional water may be adsorbed on the surface or may further fill the channels of the structure. In some embodiments, the term “overhydrated” refers to crystal modification 1 containing from about 1.5 to about 4 moles of water per mole of odevixibat, such as from about 1.5 to about 3.5, or such as from about 1.5 to 3, or such as from about 1.5 to about 2.5, or such as from about 1.5 to about 2 moles of water per mole of odevixibat. In some embodiments, the term “overhydrated” refers to crystal modification 1 containing from about 2 to about 4 moles of water per mole of odevixibat, such as from about 2 to about 3.5, or such as from about 2 to about 3, or such as from about 2 to 2.5 moles of water per mole of odevixibat.

[2] = Solubility of odevixibat in water; conditions: pH 7, 37° C.
Excerpt: It is desirable that the use of organic solvents in the preparation of the formulation is avoided. In some embodiments, water is used as the solvent for the preparation of the formulation. […] Because of this low solubility in water, aqueous suspensions of odevixibat can contain larger agglomerates of odevixibat, which may lead to an uneven distribution of the active pharmaceutical ingredient on the cores, i.e. the cores may contain different amounts of odevixibat, which in turn impacts dose uniformity. Accordingly, in some embodiments, the aqueous suspension of odevixibat is homogeneous. In some embodiments, a homogeneous aqueous suspension of odevixibat is sprayed onto the cores.

[3] = Particle size distribution of crystalline odevixibat drug substance; conditions: typical value, crystalline material
Excerpt: Crystalline odevixibat was used. Typical values for the particle size distribution of the crystalline material were d10=0.9 μm, d50=4 μm and d90=20 μm, wherein d10, d50 and d90 are defined as the diameters where 10%, 50% and 90%, respectively, of the particle population lies below these values. […]

water content of crystal ([1]; about 30% relative humidity, based on total crystal weight) | hygroscopicity ([1]; between about 30 and about 70% RH) | additional water taken up ([1]; humidity increased up to 95% RH, fully reversible) | solubility [2] | particle size distribution d10 [3] | particle size distribution d50 [3] | particle size distribution d90 [3] | Structure (SMILES) | water content ([1]; about 30% relative humidity)
about 3.5 % (w/w) | relatively low hygroscopicity | 1.5 % (w/w) |  |  |  |  | CCCCC1(CCCC)CN(c2ccccc2)c2cc(SC)c(OCC(=O)N[C@@H](C(=O)N[C@@H](CC)C(=O)O)c3ccc(O)cc3)cc2S(=O)(=O)N1 [crystal modification 1] | about 1.5 moles of water per mole of organic compound
 |  |  | ~30 µg/mL (≈ 40.5 µM) | 0.9 μm | 4 μm | 20 μm | CCCCC1(CCCC)CN(c2ccccc2)c2cc(SC)c(OCC(=O)N[C@@H](C(=O)N[C@@H](CC)C(=O)O)c3ccc(O)cc3)cc2S(=O)(=O)N1 [odevixibat, 1,1-dioxo-3,3-dibutyl-5-phenyl-7-methylthio-8-(N—{(R)-α-[N—((S)-1-carboxypropyl)carbamoyl]-4-hydroxybenzyl}carbamoylmethoxy)-2,3,4,5-tetrahydro-1,2,5-benzothiadiazepine] | 
